Assay results reported in ChEMBL document CHEMBL1146372, “Total synthesis of (R,R,R)- and (S,S,S)-schweinfurthin F: differences of bioactivity in the enantiomeric series” (Bioorg Med Chem Lett, 2007).

Key:
[1] = Growth inhibition of NCI60 cells after 48 hrs; type: functional; settings: Homo sapiens, NCI60, 48 h
[2] = system: U-251; experiment: Growth inhibition of U251 cells; type: functional; settings: Homo sapiens
[3] = system: Hs-578T; experiment: Growth inhibition of HS578T cells; type: functional; settings: Homo sapiens
[4] = system: RPMI; experiment: Inhibition of DNA synthesis in human RPMI cells by [3H]-thymidine incorporation assay; type: functional, cell-based
[5] = system: SNB-75; experiment: Growth inhibition of SNB75 cells; type: functional; settings: Homo sapiens

| Structure (SMILES) | GI50 [1] | GI50 [2] | GI50 [3] | IC50 [4] | GI50 [5] |
| --- | --- | --- | --- | --- | --- |
| COc1cc(/C=C/c2cc3c(c(OC)c2)O[C@@]2(C)CC[C@H](O)C(C)(C)[C@@H]2C3)cc(O)c1CC=C(C)C | 4.6 µM |  |  |  |  |
| COc1cc(/C=C/c2cc(O)c(CC=C(C)C)c(O)c2)cc2c1O[C@]1(C)CC[C@@H](O)C(C)(C)[C@H]1C2 (single isomer, unassigned) [SCHWEINFURTHIN F] | 0.41 µM | 13 µM | < 0.01 µM | 0.58 µM | 0.01 µM |
| CC(C)=CCc1c(O)cc(/C=C/c2cc(O)c3c(c2)C[C@@H]2C(C)(C)[C@H](O)[C@H](O)C[C@@]2(C)O3)cc1O [VEDELIANIN] | 0.08 µM |  |  |  |  |
| COc1cc(/C=C/c2cc(O)c(C/C=C(\C)CCC=C(C)C)c(O)c2)cc2c1O[C@]1(C)C[C@@H](O)[C@@H](O)C(C)(C)[C@H]1C2 [SCHWEINFURTHIN B] | 0.81 µM |  |  |  |  |
| COc1cc(/C=C/c2cc(O)c(CC=C(C)C)c(O)c2)cc2c1O[C@@]1(C)CC[C@H](O)C(C)(C)[C@@H]1C2 (single isomer, unassigned) | 0.13 µM | < 0.01 µM | < 0.01 µM | 3.4 µM | 1.7 µM |
| COc1cc(/C=C/c2cc3c(c(OC)c2)O[C@]2(C)CC[C@@H](O)C(C)(C)[C@H]2C3)cc(O)c1CC=C(C)C | 0.87 µM |  |  |  |  |
| COc1cc(/C=C/c2cc(O)c(C/C=C(\C)CCC=C(C)C)c(O)c2)cc2c1O[C@@]1(C)CC[C@H](O)C(C)(C)[C@@H]1C2 (single isomer, unassigned) | 2.2 µM |  |  | 4.5 µM |  |
| CC(C)=CCC/C(C)=C/Cc1c(O)cc(/C=C/c2cc(O)c3c(c2)C[C@@H]2C(C)(C)[C@H](O)[C@H](O)C[C@@]2(C)O3)cc1O [SCHWEINFURTHIN A] | 0.36 µM |  |  |  |  |
| COc1cc(/C=C/c2cc(O)c(C/C=C(\C)CCC=C(C)C)c(O)c2)cc2c1O[C@]1(C)CC[C@@H](O)C(C)(C)[C@H]1C2 (single isomer, unassigned) [3-DEOXYSCHWEINFURTHIN B] | 0.87 µM |  |  | 0.21 µM |  |
